The inhibition is the drop in the measured response relative to a control, in per cent.

The first experiment deals with T1, recombinant human mPGES-1 (Homo sapiens, UniProt O14684).
T1 construct: made in house; host or cells: Rosetta E. coli (microsomal/membrane fraction)
T1 sequence (O14684 1-152): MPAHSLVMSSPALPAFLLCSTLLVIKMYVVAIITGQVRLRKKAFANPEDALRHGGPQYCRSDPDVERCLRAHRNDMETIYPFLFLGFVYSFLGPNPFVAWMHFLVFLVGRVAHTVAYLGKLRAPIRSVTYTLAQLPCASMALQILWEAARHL
In words: mPGES-1 inhibition test (microsomes, PGH2 substrate, HTRF detection of PGE2). The experiment is classed as biochemical. As to conditions: inhibition of mPGES-1 at 1 μM (marked in cell). In short, it runs like this: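 PGE2 formed from PGH2 in one minute by E. coli-expressed microsomal enzyme (pH 7.4, 2.5 mM GSH) was measured by competitive HTRF against a synthetic PGE2 standard curve. Compounds were preincubated 25 min at room temperature.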
In general terms: TR-FRET usually uses a lanthanide donor and a delayed reading to cut background.
`O=C(Nc1cccc(Br)c1)c1ccc2[nH]c(Nc3c(Cl)cccc3Cl)nc2c1` [Example 69, 2-(2,6-Dichloro-phenylamino)-1H-benzimidazole-5-carboxylic acid (3-bromo-phenyl)-amide]: the inhibition at 1 µM was found to be 100%.

Still in this experiment, the particulars now being: inhibition of mPGES-1 at 10 μM.
Consider `Cn1c(Nc2ccc(C(F)(F)F)cc2Cl)nc2cc(C(=O)Nc3ccc(Br)cc3)ccc21` [Example 556, N-(4-Bromophenyl)-2-(2-chloro-4-trifluoromethyl-phenylamino)-1-methyl-1H-benzimidazole-5-carboxamide], for which the inhibition at 10 µM worked out at 74%.
Regarding `Cn1c(Nc2c(Cl)cccc2Cl)nc2cc(C(=O)NC3CCC4(CC3)CC4)c(F)cc21` [Example 419, 2-(2,6-Dichlorophenylamino)-6-fluoro-1-methyl-N-(spiro[2.5]octan-6-yl)-1H-benzimidazole-5-carboxamide], the inhibition at 10 µM stood at 100%.
Regarding `CC1(C)CCC(NC(=O)c2cc3nc(Nc4c(Cl)ccc(Cl)c4F)[nH]c3cc2F)CC1` [Example 596, 2-(3,6-Dichloro-2-fluoro-phenylamino)-N-(4,4-dimethyl-cyclohex-1-yl)-6-fluoro-1H-benzimidazole-5-carboxamide], the inhibition at 10 µM came out at 95%.
In the case of `Cn1c(Nc2c(Cl)cccc2Cl)nc2cc(C(=O)Nc3ccc(Br)cc3)ccc21` [Example 316, 2-(2,6-Dichloro-phenylamino)-1-methyl-1H-benzimidazole-5-carboxylic acid (4-bromo-phenyl)-amide], the inhibition at 10 µM came to 100%.
On to `CC(C)Oc1cc2[nH]c(Nc3c(Cl)ccc(Cl)c3F)nc2cc1C(=O)Nc1cccc(Cl)c1` [Example 614, 2-(3,6-Dichloro-2-fluoro-phenylamino)-N-(3-chloro-phenyl)-6-isopropoxy-1H-benzimidazole-5-carboxamide], for which the inhibition at 10 µM is 100%.
As to `O=C(Nc1cc(Cl)ccc1Cl)c1ccc2[nH]c(Nc3c(Cl)cccc3Cl)nc2c1` [Example 281, 2-(2,6-Dichloro-phenylamino)-1H-benzimidazole-5-carboxylic acid (2,5-dichloro-phenyl)-amide], the inhibition at 10 µM came out at 100%.
Still for that read-out and setting: the value for `Cn1c(Nc2c(Cl)cccc2Cl)nc2cc(C(=O)NC3CC4CCCCC4C3)c(F)cc21` (stereo not shown) [Example 163, 2-(2,6-Dichloro-phenylamino)-6-fluoro-1-methyl-1H-benzimidazole-5-carboxylic acid (octahydro-inden-2-yl)-amide] was 100%.
In the case of `O=C(NCc1ccncc1)c1ccc2[nH]c(Nc3c(Cl)cccc3Cl)nc2c1` [Example 236, 2-(2,6-Dichloro-phenylamino)-1H-benzimidazole-5-carboxylic acid (pyridin-4-ylmethyl)-amide], the inhibition at 10 µM was determined as 83%.
The same measure, in the same setting: the value for `Cn1c(Nc2c(F)cccc2Cl)nc2cc(C(=O)NCC3CC3)c(F)cc21` [Example 546, 2-(2-Chloro-6-fluorophenylamino)-N-(cyclopropylmethyl)-6-fluoro-1-methyl-1H-benzimidazole-5-carboxamide] was 85%.
The same measure, in the same setting: the value for `Cn1c(Nc2c(Cl)cccc2Cl)nc2cc(C(=O)Nc3cc(Cl)ccn3)ccc21` [Example 210, 2-(2,6-Dichloro-phenylamino)-1-methyl-1H-benzimidazole-5-carboxylic acid (4-chloro-pyridin-2-yl)-amide] was 100%; that for `Cn1c(Nc2c(F)cccc2Cl)nc2cc(C(=O)NC3CCCC(C)(C)C3)c(F)cc21` (stereo not shown) [Example 404, 2-(2-Chloro-6-fluorophenylamino)-N-(3,3-dimethylcyclohexyl)-6-fluoro-1-methyl-1H-benzimidazole-5-carboxamide] was 100%.
With `O=C(Nc1c(Cl)cc(Cl)cc1Cl)c1ccc2[nH]c(Nc3c(Cl)cccc3Cl)nc2c1` [Example 313, 2-(2,6-Dichloro-phenylamino)-1H-benzimidazole-5-carboxylic acid (2,4,6-trichloro-phenyl)-amide], the inhibition at 10 µM is 99%.
Consider `Cn1c(Nc2c(Cl)cccc2Cl)nc2cc(C(=O)NC3CCCC(C)(C)C3)c(F)cc21` (stereo not shown) [Example 355, 2-(2,6-Dichlorophenylamino)-N-(3,3-dimethylcyclohexyl)-6-fluoro-1-methyl-1H-benzimidazole-5-carboxamide], for which the inhibition at 10 µM is 100%.
Consider `Cn1c(Nc2c(Cl)cccc2Cl)nc2cc(C(=O)NCc3ncccc3C3CC3)c(F)cc21` [Example 422, N-((3-Cyclopropylpyridin-2-yl)methyl)-2-(2,6-dichlorophenylamino)-6-fluoro-1-methyl-1H-benzimidazole-5-carboxamide], for which the inhibition at 10 µM is 100%.
On the same count and under the same terms, the value for `CN(C)CCn1c(Nc2c(Cl)cccc2Cl)nc2cc(C(=O)Nc3cc(Cl)ccn3)ccc21` [Example 273, 2-(2,6-Dichloro-phenylamino)-1-(2-dimethylamino-ethyl)-1H-benzimidazole-5-carboxylic acid (4-chloro-pyridin-2-yl)-amide] was 100%; that for `O=C(Nc1ccc(Cl)c(Cl)c1Cl)c1ccc2[nH]c(Nc3c(Cl)cccc3Cl)nc2c1` [Example 312, 2-(2,6-Dichloro-phenylamino)-1H-benzimidazole-5-carboxylic acid (2,3,4-trichloro-phenyl)-amide] was 100%.
Same read-out and setting: the value for `Cn1c(Nc2c(Cl)cccc2Cl)nc2cc(C(=O)NC3(C)CCCCC3)ccc21` [Example 253, 2-(2,6-Dichloro-phenylamino)-1-methyl-1H-benzimidazole-5-carboxylic acid (1-methyl-cyclohexyl)-amide] was 100%.
With `COc1cc2[nH]c(Nc3c(Cl)cc(F)cc3Cl)nc2cc1C(=O)N[C@H]1CC[C@H](C(F)(F)F)CC1` [Example 579, 2-(2,6-Dichloro-4-fluoro-phenylamino)-6-methoxy-N-(trans-4-trifluoromethyl-cyclohex-1-yl)-1H-benzimidazole-5-carboxamide], the inhibition at 10 µM is 100%.
`CS(=O)(=O)CCn1c(Nc2c(Cl)cccc2Cl)nc2cc(C(=O)Nc3cc(Cl)ccn3)ccc21` [Example 269, 2-(2,6-Dichloro-phenylamino)-1-(2-methanesulfonyl-ethyl)-1H-benzimidazole-5-carboxylic acid (4-chloro-pyridin-2-yl)-amide]: the inhibition at 10 µM came to 85%.
Same read-out and setting: the same measure for `O=C(Nc1cc(Cl)ccn1)c1ccc2[nH]c(Nc3c(Cl)cccc3Cl)nc2c1` [Example 75, 2-(2,6-Dichloro-phenylamino)-1H-benzimidazole-5-carboxylic acid (4-chloro-pyridin-2-yl)-amide]: 95%; for `Cn1c(Nc2c(Cl)cccc2Cl)nc2cc(C(=O)NCc3cnccc3C(F)(F)F)c(F)cc21` [Example 126, 2-(2,6-Dichloro-phenylamino)-6-fluoro-1-methyl-1H-benzimidazole-5-carboxylic acid (4-trifluoromethyl-pyridin-3-ylmethyl)-amide]: 92%; for `O=C(N[C@H]1CC[C@H](C(F)(F)F)CC1)c1cc2nc(Nc3c(Cl)ccc(Cl)c3F)[nH]c2cc1OCC(F)(F)F` [Example 592, 2-(3,6-Dichloro-2-fluoro-phenylamino)-N-(4-trans-trifluoromethyl-cyclohex-1-yl)-6-(2,2,2-trifluorethoxy)-1H-benzimidazole-5-carboxamide]: 97%.
As to `COCCn1c(Nc2c(Cl)cccc2Cl)nc2cc(C(=O)Nc3cc(Cl)ccn3)ccc21` [Example 272, 2-(2,6-Dichloro-phenylamino)-1-(2-methoxy-ethyl)-1H-benzimidazole-5-carboxylic acid (4-chloro-pyridin-2-yl)-amide], the inhibition at 10 µM was found to be 90%.
As for `O=C(NC1CCC2(CC1)CC2)c1cc2nc(Nc3c(F)cccc3Cl)[nH]c2cc1F` [Example 399, 2-(2-Chloro-6-fluorophenylamino)-6-fluoro-N-(spiro[2.5]octan-6-yl)-1H-benzimidazole-5-carboxamide], the inhibition at 10 µM worked out at 99%.
Same read-out and setting: the same measure for `O=C(Nc1ccc(Br)cc1)c1ccc2[nH]c(Nc3cccc(Cl)c3C(F)(F)F)nc2c1` [Example 333, 2-(3-Chloro-2-trifluoromethyl-phenylamino)-1H-benzimidazole-5-carboxylic acid (4-bromo-phenyl)-amide]: 94%; for `O=C(Nc1cc(Cl)nc(Cl)c1)c1ccc2[nH]c(Nc3c(Cl)cccc3Cl)nc2c1` [Example 187, 2-(2,6-Dichloro-phenylamino)-1H-benzimidazole-5-carboxylic acid (2,6-dichloro-pyridin-4-yl)-amide]: 98%; for `O=C(Nc1ccccc1)c1ccc2[nH]c(Nc3ccccc3C(F)(F)F)nc2c1` [Example 6, 2-(2-Trifluoromethyl-phenylamino)-1H-benzimidazole-5-carboxylic acid-phenylamide]: 99%.
On to `CN(C)c1cccc(Cl)c1Nc1nc2cc(C(=O)Nc3ccc(Br)cc3)ccc2n1C` [Example 499, N-(4-Bromophenyl)-2-(2-chloro-6-(dimethylamino)phenylamino)-1-methyl-1H-benzimidazole-5-carboxamide], for which the inhibition at 10 µM was determined as 100%.
As to `Cn1c(Nc2c(Cl)cccc2Cl)nc2cc(C(=O)NCC3CCC3)c(F)cc21` [Example 516, N-(Cyclobutylmethyl)-2-(2,6-dichlorophenylamino)-6-fluoro-1-methyl-1H-benzimidazole-5-carboxamide], the inhibition at 10 µM is 97%.
With `Cc1cccc(Cl)c1Nc1nc2cc(C(=O)Nc3ccc(Br)cc3)ccc2n1C` [Example 382, N-(4-Bromophenyl)-2-(2-chloro-6-methylphenylamino)-1-methyl-1H-benzimidazole-5-carboxamide], the inhibition at 10 µM turned out to be 100%.

Source of the values: patent publication US8916599B2, “1H-benz imidazole-5-carboxamides as anti-inflammatory agents” (Orexo AB, priority 2008, dated 2014).
